# According to patent publication US20260306464A1, “LINAPRAZAN GLURATE FOR TREATING GASTROESOPHAGEAL REFLUX DISEASE (GERD)” (Cinclus Pharma Holding AB (publ), priority 2023, published 2026):
# Tests used:
# intragastric pH = experiment: Phase I: plasma concentration of linaprazan vs. intragastric pH; type: in vivo, human; conditions: Phase I studies
# Source text: The plasma concentration of linaprazan glurate is only very low and difficult to determine, but the plasma concentration of linaprazan may be determined instead.
# [1] = Plasma pharmacokinetics / metabolism of linaprazan glurate; type: in vivo
# [2] = LEED study: heartburn assessed by mRESQ-eDiary; type: in vivo, human; conditions: for % at most mild symptoms 24-hour days (mean) / % heartburn-free 24-hour days (mean) / Patients (%) totally free from heartburn / Patients (%) with at most mild heartburn / Patients (%) with non-mild heartburn: week 4, erosive patients all LA grades
# Source text: Relief of reflux-related symptoms may be assessed based on the modified Reflux Symptom Reflux Questionnaire-electronic Diary (mRESQ-eDiary), which is an electronic symptom diary developed for use in partial responders to proton pump inhibitors. mRESQ-eD has three domains (i.e., heartburn, other GERD signs/symptoms and regurgitations/reflux) and eight items (Andrae et al., Clin. Transl. Gastroenterol. 2020, 11(1): e00117).
# The study was a randomized, double-blind, active comparator-controlled study with a parallel group design including four arms with linaprazan glurate and one arm with lansoprazole. Pharmacokinetic (PK) blood sampling pre-dose, close before the first and the second dose administration was performed at Day 7, Day 14 and Day 28 visits days in all patients. 248 patients with erosive esophagitis due to GERD LA grade C or D and patients with erosive esophagitis due to GERD LA grade A or B with at least partial symptom response but still endoscopically unhealed after 8 weeks history of standard treatment healing course with PPI, were randomized.
# Randomization to one of the treatments with linaprazan glurate 25 mg, 50 mg, 75 mg, 100 mg twice daily (BID), or lansoprazole 30 mg once daily (QD) was based on a 1:1:1:1:1 scheme. One site could not enroll more than about 20% of the overall number of patients (48 patients per site).
# The duration of each patient's participation in the study, including screening, blind treatment period and open-label treatment period, was approximately 60 days. The patients were randomized for 4 weeks (28 days, −2/+5 days) of double-blind treatment and were provided with IMP for 35 days (including one additional blister pack dispensed at Visit 2/Day 0) to allow for treatment up to the visit window. […] Following the endoscopic evaluation, all patients received subsequent 4 weeks of open-label treatment with lansoprazole 30 mg QD. Repeated symptom evaluation to detect symptom pattern was assessed during this period.
# Four doses of linaprazan glurate (25 mg, 50 mg, 75 mg, 100 mg, and dummies) were administered as tablets twice daily. The active comparator lansoprazole 30 mg and its dummy were administered as capsules once daily in the morning. The study drugs were taken with 100 mL of noncarbonated water at least 30 minutes prior to meals. The duration of double-blind treatment was 28 days −2/+5 days. To blind treatment, each patient received 2 tablets (containing doses of linaprazan glurate (LG) or its dummy) and one capsule (containing lansoprazole or its dummy) in the morning and 2 tablets (containing doses of linaprazan glurate (LG) or its dummy) in the evening, according to the scheme below:
# A secondary objective of the study was the safety and tolerability of the four dose levels of linaprazan glurate and lansoprazole, with lansoprazole serving as the active comparator. Another secondary objective of the study was the reflux related symptom pattern during the initial 4 weeks treatment with four dose levels of linaprazan glurate and with lansoprazole, and the symptom pattern during the subsequent additional 4 weeks (weeks 5-8) open-label treatment with lansoprazole 30 mg QD. Heartburn-free 24-hour days and 24-hour days with at most mild heartburn symptoms were assessed based on modified eDiary (mRESQ-eD), including splits into day- and nighttime evaluations.
# Reflux related symptoms were assessed based on a modified RESQ-eDiary (mRESQ-eD). Patients were asked to report every 12-hours, once before the morning dose and once before the evening dose of the Investigational Medicinal Product (IMP).
# [3] = tested on: gastric hydrogen potassium pump (H+/K+ ATPase); conditions: healthy subjects; cited from earlier work
# [4] = LEED study: safety and tolerability (adverse events); conditions: for COVID-19 (%) / COVID-19 events / Constipation (%) / Constipation events / Headache (%) / Headache events / Nausea (%) / Nausea events: TEAE
smiles,measurement,setting,value
"Cc1cccc(C)c1CNc1cc(C(=O)NCCOC(=O)CCCC(=O)O)cn2c(C)c(C)nc12 [linaprazan glurate, 5-{2-[({8-[(2,6-dimethylbenzyl)amino]-2,3-dimethylimidazo[1,2-a]pyridine-6-yl}carbonyl)-amino]ethoxy}-5-oxopentanoic acid]",pH control,intragastric pH,dose dependent
same,plasma concentration of linaprazan glurate,[1]; following absorption,very low
same,metabolism into linaprazan,[1]; following absorption into the blood stream,quickly metabolized into linaprazan
same,"heartburn severity, rank among groups","[2]; FAS Erosive, first week, morning and evening, LG 75 mg BID",lowest heartburn severity
same,percentage of symptom free days (highest of groups),"[2]; FAS Erosive, week 1, LG 75 mg BID",33.3%
same,heartburn-free days vs lansoprazole,"[2]; FAS Erosive, week 1 to 4, all LG groups",more heartburn-free days
same,percentage of symptom free days (highest of groups),"[2]; FAS Erosive, week 2, LG 75 mg BID",57.2%
same,percentage of symptom free days (highest of groups),"[2]; FAS Erosive, week 3, LG 75 mg BID",62.6%
same,percentage of symptom free days (highest of groups),"[2]; FAS Erosive, week 4, LG 100 mg BID",65.2%
same,percentage of heartburn-free days (highest of groups),"[2]; FAS Erosive, week 5 open-label lansoprazole, former LG 75 mg group",72.6%
same,heartburn-free days vs lansoprazole,"[2]; FAS Erosive, week 5 to 8 open-label (all on lansoprazole 30 mg QD), former LG groups",more heartburn-free days
same,percentage of heartburn-free days (highest of groups),"[2]; FAS Erosive, week 6 open-label lansoprazole, former LG 75 mg group",73.0%
same,percentage of heartburn-free days (highest of groups),"[2]; FAS Erosive, week 7 open-label lansoprazole, former LG 25 mg group",81.9%
same,percentage of heartburn-free days (highest of groups),"[2]; FAS Erosive, week 8 open-label lansoprazole, former LG 25 mg group",87.6%
same,"severity grade of heartburn, rank among groups","[2]; FAS, first week, morning and evening, LG 75 mg BID",lowest severity grade
same,percentage of symptom free days (highest of groups),"[2]; FAS, week 1, LG 75 mg BID",29.2%
same,heartburn-free days vs lansoprazole,"[2]; FAS, week 1 to 4, all LG groups",more heartburn-free days
same,percentage of symptom free days (highest of groups),"[2]; FAS, week 2, LG 75 mg BID",52.9%
same,percentage of symptom free days (highest of groups),"[2]; FAS, week 4, LG 100 mg BID",62.2%
same,percentage of heartburn-free days (highest of groups),"[2]; FAS, week 5 open-label lansoprazole, former LG 75 mg group",69.6%
same,heartburn-free days vs lansoprazole,"[2]; FAS, week 5 to 8 open-label (all on lansoprazole 30 mg QD), former LG groups",more heartburn-free days
same,percentage of heartburn-free days (highest of groups),"[2]; FAS, week 7 open-label lansoprazole, former LG 25 mg group",79.4%
same,percentage of heartburn-free days (highest of groups),"[2]; FAS, week 8 open-label lansoprazole, former LG 25 mg group",82.4%
same,"heartburn-free days, rank among groups","[2]; LA Grade A/B, week 1 to 3, LG 75 mg BID",highest percentage of heartburn-free days
same,"heartburn-free days, rank among groups","[2]; LA Grade A/B, week 5 open-label lansoprazole, former LG 75 mg group",highest percentage of heartburn-free days
same,"heartburn-free days, rank among groups","[2]; LA Grade A/B, weeks 7 and 8 open-label lansoprazole, former LG 25 mg group",highest percentage of heartburn-free days
same,"heartburn-free days, rank among groups","[2]; LA Grade C/D, week 1 and 4, LG 50 mg BID",highest percentage of heartburn-free days
same,"heartburn-free days, rank among groups","[2]; LA Grade C/D, week 2, LG 75 mg BID",highest percentage of heartburn-free days
same,"heartburn-free days, rank among groups","[2]; LA Grade C/D, week 3, LG 100 mg BID",highest percentage of heartburn-free days
same,"heartburn-free days, rank among groups","[2]; LA Grade C/D, week 5 open-label lansoprazole, former LG 50 mg group",highest percentage of heartburn-free days
same,"heartburn-free days, rank among groups","[2]; LA Grade C/D, week 6 to 8 open-label lansoprazole, former LG 75 mg group",highest percentage of heartburn-free days
same,% at most mild symptoms 24-hour days (mean),[2]; LG 25 mg BID (N = 21),96%
same,% heartburn-free 24-hour days (mean),[2]; LG 25 mg BID (N = 21),52%
same,Patients (%) totally free from heartburn,[2]; LG 25 mg BID (N = 21),45%
same,Patients (%) with at most mild heartburn,[2]; LG 25 mg BID (N = 21),97%
same,Patients (%) with non-mild heartburn,[2]; LG 25 mg BID (N = 21),6%
same,% at most mild symptoms 24-hour days (mean),[2]; LG 50 mg BID (N = 27),96%
same,% heartburn-free 24-hour days (mean),[2]; LG 50 mg BID (N = 27),56%
same,Patients (%) totally free from heartburn,[2]; LG 50 mg BID (N = 27),44%
same,Patients (%) with at most mild heartburn,[2]; LG 50 mg BID (N = 27),97%
same,Patients (%) with non-mild heartburn,[2]; LG 50 mg BID (N = 27),6%
same,% at most mild symptoms 24-hour days (mean),[2]; LG 75 mg BID (N = 20),97%
same,% heartburn-free 24-hour days (mean),[2]; LG 75 mg BID (N = 20),56%
same,Patients (%) totally free from heartburn,[2]; LG 75 mg BID (N = 20),50%
same,Patients (%) with at most mild heartburn,[2]; LG 75 mg BID (N = 20),87%
same,Patients (%) with non-mild heartburn,[2]; LG 75 mg BID (N = 20),13%
same,% at most mild symptoms 24-hour days (mean),[2]; LG 100 mg BID (N = 19),100%
same,% heartburn-free 24-hour days (mean),[2]; LG 100 mg BID (N = 19),76%
same,Patients (%) totally free from heartburn,[2]; LG 100 mg BID (N = 19),63%
same,Patients (%) with at most mild heartburn,[2]; LG 100 mg BID (N = 19),92%
same,Patients (%) with non-mild heartburn,[2]; LG 100 mg BID (N = 19),8%
same,intragastric pH two hours after the first dose,[3],Neutral intragastric pH
same,safety data vs lansoprazole,[4]; LG 25-100 mg BID,comparable to that of lansoprazole
same,tolerability,[4]; LG 25-100 mg BID,generally well tolerated
same,COVID-19 (%),[4]; LG 25 mg BID,2.0%
same,COVID-19 events,[4]; LG 25 mg BID,1 events
same,Constipation (%),[4]; LG 25 mg BID,3.9%
same,Constipation events,[4]; LG 25 mg BID,2 events
same,Headache (%),[4]; LG 25 mg BID,2.0%
same,Headache events,[4]; LG 25 mg BID,1 events
same,Nausea (%),[4]; LG 25 mg BID,2.0%
same,Nausea events,[4]; LG 25 mg BID,1 events
same,COVID-19 (%),[4]; LG 50 mg BID,4.2%
same,COVID-19 events,[4]; LG 50 mg BID,2 events
same,Constipation (%),[4]; LG 50 mg BID,2.1%
same,Constipation events,[4]; LG 50 mg BID,1 events
same,Headache (%),[4]; LG 50 mg BID,6.3%
same,Headache events,[4]; LG 50 mg BID,3 events
same,Nausea (%),[4]; LG 50 mg BID,0.0%
same,Nausea events,[4]; LG 50 mg BID,0 events
same,COVID-19 (%),[4]; LG 75 mg BID,1.9%
same,COVID-19 events,[4]; LG 75 mg BID,1 events
same,Constipation (%),[4]; LG 75 mg BID,3.8%
same,Constipation events,[4]; LG 75 mg BID,2 events
same,Headache (%),[4]; LG 75 mg BID,1.9%
same,Headache events,[4]; LG 75 mg BID,1 events
same,Nausea (%),[4]; LG 75 mg BID,0.0%
same,Nausea events,[4]; LG 75 mg BID,0 events
same,COVID-19 (%),[4]; LG 100 mg BID,8.5%
same,COVID-19 events,[4]; LG 100 mg BID,4 events
same,Constipation (%),[4]; LG 100 mg BID,0.0%
same,Constipation events,[4]; LG 100 mg BID,0 events
same,Headache (%),[4]; LG 100 mg BID,2.1%
same,Headache events,[4]; LG 100 mg BID,1 events
same,Nausea (%),[4]; LG 100 mg BID,0.0%
same,Nausea events,[4]; LG 100 mg BID,0 events
